What was measured:
Alternaria brassicae = assay: In vivo test on Alternaria brassicae (leaf spot of crucifers), radish plants; details: 330 ppm, comparison compounds of WO 01/11965
Procedure: The active ingredient tested is prepared by potter homogenisation in a concentrated suspension type formulation at 100 g/l. […] Radish plants (Pernot variety) in starter cups, sown on a 50/50 peat soil-pozzolana substrate and grown at 18-20° C., are treated at the cotyledon stage by spraying with the aqueous suspension described above. Plants, used as controls, are treated with an aqueous solution not containing the active material. After 24 hours, the plants are contaminated by spraying them with an aqueous suspension of Alternaria brassicae spores (40,000 spores per cm^3). The spores are collected from a 12 to 13 days-old culture. The contaminated radish plants are incubated for 6-7 days at about 18° C., under a humid atmosphere. Grading is carried out 6 to 7 days after the contamination, in comparison with the control plants. Under these conditions, good (at least 50%) or total protection is observed at a dose of 330 ppm with the following compounds: 1, 2, 3 and 4.

Botrytis cinerea = assay: In vivo test on Botrytis cinerea (cucumber grey mould), cucumber plants; details: 330 ppm; for effectiveness on Botrytis cinerea: comparison compounds of WO 01/11965
Procedure: The active ingredient tested is prepared by potter homogenisation in a concentrated suspension type formulation at 100 g/l. This suspension is then diluted with water to obtain the desired active material concentration.
Cucumber plants (Marketer variety) in starter cups, sown on a 50/50 peat soil-pozzolana substrate and grown at 18-20° C., are treated at the cotyledon Z11 stage by spraying with the aqueous suspension described above. Plants, used as controls, are treated with an aqueous solution not containing the active material.
After 24 hours, the plants are contaminated by depositing drops of an aqueous suspension of Botrytis cinerea spores (150,000 spores per ml) on upper surface of the leaves. The spores are collected from a 15-day-old culture and are suspended in a nutrient solution composed of: • 20 g/L of gelatin • 50 g/L of cane sugar • 2 g/L of NH4NO3 • 1 g/L of KH2PO4
The contaminated cucumber plants are settled for 5/7 days in a climatic room at 15-11° C. (day/night) and at 80% relative humidity.
Grading is carried out 5/7 days after the contamination, in comparison with the control plants. Under these conditions, good (at least 50%) or total protection is observed at a dose of 330 ppm with the following compounds: 3.

Peronospora parasitica = assay: Efficacy against Peronospora parasitica; assay type: in vivo; details: 330 ppm, comparison compound of WO 01/11965

| SMILES | effectiveness on Alternaria brassicae (Alternaria brassicae) | effectiveness on Botrytis cinerea (Botrytis cinerea) | protection (good, at least 50%, or total) (Botrytis cinerea; preventive spray on cucumber plants, grading 5/7 days after contamination, versus control plants) | efficacy against Peronospora parasitica (Peronospora parasitica) |
| --- | --- | --- | --- | --- |
| CCNC(=O)C(Cc1ncc(C(F)(F)F)cc1Cl)NC(=O)c1cccc([N+](=O)[O-])c1 (stereo not shown) [compound 307, N-{1-ethylcarbamoyl-2-[3-chloro-5-(trifluoromethyl)-2-pyridinyl]ethyl}-3-nitrobenzamide] | poor effectiveness | zero effectiveness |  |  |
| O=C(NCCc1cc(F)ncc1F)c1ccccc1C(F)(F)F [Compound 3] |  |  | at least 50% |  |
| CCNC(=O)C(Cc1ncc(C(F)(F)F)cc1Cl)NC(=O)c1ccccc1Br (stereo not shown) [compound 310, N-{1-ethylcarbamoyl-2-[3-chloro-5-(trifluoromethyl)-2-pyridinyl]ethyl}-2-bromobenzamide] |  | zero effectiveness |  |  |
| CNC(=O)C(Cc1ncc(C(F)(F)F)cc1Cl)NC(=O)c1ccc(-c2ccccc2)cc1 (stereo not shown) [compound 316, N-{1-methylcarbamoyl-2-[3-chloro-5-(trifluoromethyl)-2-pyridinyl]-ethyl}-4-phenylbenzamide] | poor effectiveness | zero effectiveness |  |  |
| CCNC(=O)C(Cc1ncc(C(F)(F)F)cc1Cl)NC(=O)c1ccc(Cl)cc1 (stereo not shown) [compound 306, N-{1-ethylcarbamoyl-2-[3-chloro-5-(trifluoromethyl)-2-pyridinyl]ethyl}-4-chlorobenzamide] |  | zero effectiveness |  |  |
| CNC(=O)C(Cc1ncc(C(F)(F)F)cc1Cl)NC(=O)c1ccc(OC)cc1 (stereo not shown) [compound 315, N-{1-methylcarbamoyl-2-[3-chloro-5-(trifluoromethyl)-2-pyridinyl]ethyl}-4-methoxybenzamide] |  | zero effectiveness |  |  |
| CCNC(=O)C(Cc1ncc(C(F)(F)F)cc1Cl)NC(=O)c1ccccc1 (stereo not shown) [compound 304, N-{1-ethylcarbamoyl-2-[3-chloro-5-(trifluoromethyl)-2-pyridinyl]-ethyl}-benzamide] |  | zero effectiveness |  |  |
| O=C(Cc1cccs1)NCc1ncc(C(F)(F)F)cc1Cl [compound 101, N-{[3-chloro-5-(trifluoromethyl)-2-pyridinyl]methyl}-5-thienylacetamide] | poor efficacy | no efficacy |  | no efficacy |
| CNC(=O)C(Cc1ncc(C(F)(F)F)cc1Cl)NC(=O)c1ccccc1 (stereo not shown) [compound 314, N-{1-methylcarbamoyl-2-[3-chloro-5-(trifluoromethyl)-2-pyridinyl]ethyl}-benzamide] |  | zero effectiveness |  |  |

Source: patent US20070249690A1, “N-[2-(4-Pyridinyl)Ethyl]Benzamide Derivatives as Fungicides” (priority 2004, published 2007)
